Test results from patent US7786257B2, “Signal-1/signal-2 bifunctional peptide inhibitors” (priority 2000, dated 2010).
“Also recorded” adds a separate entry of the source. Where no end group is shown, it is not given here. [ ]: non-standard residue; d: D form. Ahx = NCCCCCC(=O)O

Experiments:
[1] = tested on: MHC-II and ICAM-1 on NOD spleenocytes; assay: Inhibition of biotinylated BPI binding to NOD spleenocytes by monoclonal antibodies to MHC-II or ICAM-1; set-up: species or system mouse; conditions: mAb 10-3.62 or 3E2 at 5 μg/ml
Procedure: (§1) Specifically, it was verified that the peptide binds to MHC molecules on live APC. Briefly, spleen cell density-gradient fractions (from mice), or PBL, or APC lines (from humans) were incubated in round bottom 96-well plates with increasing concentrations of individual biotinylated peptides at 37° C., 5% CO2 for 16 hours. Following binding of the BPI to the APC, Avidin-FITC was incubated with the cells on ice for 30 minutes, followed by biotinylated anti-Avidin for 1 hour, then again with Avidin-FITC. For BPI titrations, increasing concentrations (0.1-100 μM) of the biotinylated derivatives in sterile 0.5% BSA-PBS were incubated with the APC for 16 hours as above. […] Three-color analyses used Cy-Chrome or PE-conjugated antibodies to known surface markers of APC that were commercially available. Avidin-FITC and biotinylated anti-Avidin detection of the bound peptide was as previously described in Murray et al., 24 Eur. J. Immunol. 2337-2344 (1994); Murray; 19 Immunology Today 157-163; and Schountz et al., 157 The Journal of Immunology 3893-3901 (1996). […]
However, either purified 10-3.62 (anti-MHC-II) or 3E2 (anti-ICAM-1) were included in the overnight incubation of the spleen cells with the biotinylated BPI. […] Analyses were gated on forward/side scatter dotplots for live lymphocytes and 20,000 events were analyzed for each histogram.

[2] = tested on: MHC-II and ICAM-1 molecules on the APC surface; assay: Co-capping of ICAM-1 with MHC-II on APC from i.v. treated NOD mice (fluorescence microscopy); assay type: cell-based, mouse; conditions: T-depleted spleenocytes from NOD mice 16 hours after i.v. injection of 40 nanomoles; bio-10-3.62/streptavidin
Procedure: as §1, with “Immunol.” for “Immunol. 2337-2344 (1994); Murray; 19 Immunology Today 157-163; and Schountz et al., 157 The Journal of Immunology 3893-3901 (1996).”
Further support for simultaneous binding of the BPI to MHC-II and ICAM-1 molecules has been observed in co-capping experiments using biotinylated mAb 10-3.62 and streptavidin to cap MHC-II in the presence or absence of the BPI. […] The cells are plated and observed for evidence that a given BPI links ICAM-1 into the MHC-II cap, i.e., by standard fluorescence microscopy and image analysis.

[3] = tested on: NOD mice; assay: Lymphocytic infiltration of pancreatic islets (insulitis) in NOD mice, histological scoring; assay type: in vivo, mouse
Text: To evaluate the disease process by immunohistology (see, e.g., FIG. 12A-D), spleen, pancreas, or other target organs, e.g., the CNS for the MDP peptide BPI, or lung for the RSV peptide BPI, were removed from euthanized mice of each group and prepared for histology by fixing in neutral buffered formalin and embedding in paraffin, or snap frozen in O.C.T. medium. For scoring inflammation, minimums of five sections from each mouse were used to assess the blocking affect of a given BPI. For characterization of standard T-cell markers on cellular infiltrates, biotinylated mAb to various cell surface antigens will be incubated individually with the Cryostat sections (2 hours), followed by avidin-alkaline phosphatase (Vector laboratories). Alternatively, cell subsets will be phenotyped by standard flow cytometry methods as described in Murray et al., 24 Eur. J. Immunol. 2337-2344 (1994); Murray; 19 Immunology Today 157-163; and Schountz et al., 157 The Journal of Immunology 3893-3901 (1996). Finally, the students t-test or ANOVA will be used to estimate the statistical significance of differences observed between groups and individual mice.
These studies sought to confirm that the BPI containing the immunodominant GAD65 TCR epitope (EGAD-BPI) was biologically active in vivo and inhibited the development of pancreatic inflammation. Groups of three normal glycemic NOD males (8 weeks old) were immunized with the GAD65 (208-217) peptide in CFA as described in Example 4. The control group received PBS, and separate experimental groups received either the EGAD-BPI, the GAD peptide alone (i.e., the T-cell receptor epitope), or the CD11a peptide alone(i.e., the second signal receptor moiety) by two intravenous injections as described in Example 4. On day 10, the pancreata were removed to 10% PBS-buffered formalin, embedded in paraffin, and five-micron serial sections were examined histologically for mononuclear cell infiltration as previously described by Yoon, et al., Control of Autoimmune Diabetes in NOD Mice by GAD Expression or Suppression in β Cells, 284 Science 1183-1187 (1999), the entirety of which is hereby incorporated by reference.

GAD65(208-217)-[Ac-G-Ac-G-Ac]-CD11a (237-247) (EIAPVFVLLE[Ahx]G[Ahx]G[Ahx]ITDGEATDSG) [EGAD-BPI]
BPI binding in presence of monoclonal antibody to MHC-II or ICAM-1 [1]: effectively block binding
BPI binding in presence of monoclonal antibody to MHC-II or ICAM-1 ([1]; listed as BPI): blocked BPI binding
co-capping of ICAM-1 with MHC-II [2]: exhibited co-capping of ICAM-1 with MUC-II; also recorded: ICAM-1 was co-capped with MHC-II
intact / normal islets without infiltration (grade-0 islets), percentage of islets examined ([3]; NOD males, GAD65 peptide in CFA, two i.v. injections of 40 nanomoles, day 10): Over 95%
mononuclear cell infiltration of islets (insulitis), in words ([3]; NOD males, day 10, histology): clear inhibitory effect; also recorded: predominately intact
inhibition of insulitis ([3]; compared to the PBS control, calculated from % islets at grade 1-4): 84%
